What was measured:
[1] = target: T1, interaction between PD-1 and PD-L1 expressed on cell surfaces (Jurkat/NF-κB-luc/PD1 cells cocultured with Raji-PD-L1 cells) (Homo sapiens, UniProt Q9NZQ7); assay: Jurkat reporter gene cellular assay; type: cell-based; conditions: OKT3 1 μg/mL stimulation, 6 hrs, activation fold vs DMSO
T1 construct: expressed in transfected cells; host or cells: Raji cells (PD-L1); Jurkat cells (PD-1, NF-κB-luc reporter)
Procedure: The effect of compounds of the examples of the present invention on the interaction between PD-1 and PD-L1 expressed on cell surfaces, and the related influence on T cell functions, were determined by a Jurkat reporter gene cellular assay.
Briefly, the reporter gene plasmid of NF-κB-luc and the plasmid of human PD-1 were transfected into Jurkat cells to establish a stably transfected cell line capable of stably expressing both PD-1 and NF-κB-Luc reporter genes; the expression level of PD-1 on the cell surface was confirmed by flow cytometry; and the expression of the reporter gene was confirmed via the response of the reporter gene stimulated by OKT-3 and Raji cells.
In addition, the plasmid of human PD-L1 was transfected into Raji cells to obtain a cell line capable of stably expressing PD-L1. Jurkat/NF-κB-luc/PD1 cells and Raji-PD-L1 cells were then cocultured and stimulated with OKT-3. On this basis, the compounds were added, and the enhancement of the signal pathway of T cell activation by the inhibitory effect of the compounds on the interaction between PD-1 and PD-L1 was evaluated by readings of reporter gene responses. The specific experimental process was as follows:
1) 30 μL of compound or antibody solution was added to each well of a white 96-well plate (Corning, 3610) at different diluted concentrations, and 10 μL of OKT3 (Biolegend, 317326) was then added (the final concentration of OKT3: 1 μg/mL);
2) 20 μL of Raji-PD-L1 cell suspension was added to each well with 5*10^4 cells for each well, and was incubated in an incubator for 20 min;
3) 20 μL of Jurkat/NF-Kb-luc/PD-1 cell suspension was added to each well with 5*10^4 cells for each well, and was well mixed, and 6 hrs later, Bright-glo (Promega, E2620) was applied and plates were read on Envision;
4) The reading of each well treated with the compound was compared with the reading of each well treated with DMSO to obtain the activation fold of the compound; and
5) EC50 values of compounds of the examples of the present invention were determined by non-linear regression analysis of activation folds at different compound concentrations.

[2] = target: T2, interaction between PD-1 and PD-L1 (Homo sapiens, UniProt Q9NZQ7); assay: PD1-PDL1 HTRF binding activity test; conditions: Cisbio PD-1/PD-L1 binding assay kit; percent inhibition vs DMSO
T2 construct: purchased Cisbio 64ICP01PEG or 64ICP01PEH
T2 sequence (Q9NZQ7 19-238 limits assumed): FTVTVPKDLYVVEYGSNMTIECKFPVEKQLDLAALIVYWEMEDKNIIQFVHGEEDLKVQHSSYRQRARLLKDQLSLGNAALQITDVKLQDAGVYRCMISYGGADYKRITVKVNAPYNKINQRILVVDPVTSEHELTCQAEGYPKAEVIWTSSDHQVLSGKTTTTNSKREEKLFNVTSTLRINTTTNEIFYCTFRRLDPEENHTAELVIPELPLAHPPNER
Procedure: The effect of compounds of the examples of the present invention on the interaction between PD-1 and PD-L1 was determined by the PD-1/PD-L1 binding assay kit from Cisbio (#64ICP01PEG or 64ICP01PEH). The detailed experimental process was as follows:
1) Pre-diluted compound solution, 4 μL of Tag1-PD-L1 and 4 μL of Tag2-PD1 were added to each well of a 384-well plate;
2) After the mixture was incubated at room temperature for 15 min, 5 μL of anti-Tag1-Eu3+ antibody and 5 μL of anti-Tag2-XL665 antibody were then added;
3) After incubated for 2 hrs at room temperature or overnight at 4° C., plates were read on Envision of Perkin Elmer; and readings at 665 nm and 620 nm were recorded, and the ratio of the two readings was taken as a reading for each well;
4) The reading of each well after compound treatment was compared with the reading of DMSO treated wells to obtain the percent inhibition of the compound; and
5) IC50 values of compounds of the examples of the present invention were determined by non-linear regression analysis of percent inhibition at different compound concentrations.

T1 sequence (Q9NZQ7 19-290): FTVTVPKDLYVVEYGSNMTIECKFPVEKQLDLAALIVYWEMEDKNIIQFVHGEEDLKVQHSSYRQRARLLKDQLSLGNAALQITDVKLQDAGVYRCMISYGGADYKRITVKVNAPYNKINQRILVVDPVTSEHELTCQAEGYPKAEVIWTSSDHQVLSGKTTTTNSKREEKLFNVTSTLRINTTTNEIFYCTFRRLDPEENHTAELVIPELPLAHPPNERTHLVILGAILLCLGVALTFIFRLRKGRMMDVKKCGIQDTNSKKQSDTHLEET

With `CCOC(=O)[C@@H](CO)NCc1cnc(C(=O)Nc2cccc(-c3cccc(NC(=O)c4cc(C5CC5)c(CNCCO)cn4)c3C)c2C)cc1C1CC1` [Example 35-1, ethyl ((4-cyclopropyl-6-((3′-(4-cyclopropyl-5-(((2-hydroxyethyl)amino)methyl)picolinamido)-2,2′-dimethyl-[1,1′-biphenyl]-3-yl)carbamoyl)pyridin-3-yl)methyl)-D-serinate] the EC50 [1] was 231 nM and the IC50 [2] was 3.03 nM.
`CCOC(=O)[C@@H](CO)NCc1cnc(C(=O)Nc2cccc(-c3cccc(NC(=O)c4cc(C5CC5)c(CN[C@@H](C)CO)cn4)c3C)c2C)cc1C1CC1` [Example 39-1, Ethyl ((4-cyclopropyl-6-((3′-(4-cyclopropyl-5-((((S)-1-hydroxypropan-2-yl)amino)methyl)picolinamido)-2,2′-dimethyl-[1,1′-biphenyl]-3-yl)carbamoyl)pyridin-3-yl)methyl)-D-serinate] showed an EC50 [1] of 264 nM and an IC50 [2] of 3.22 nM.
With `CCOC(=O)[C@H](CO)NCc1cnc(C(=O)Nc2cccc(-c3cccc(NC(=O)c4cc(C5CC5)c(CNCCO)cn4)c3C)c2C)cc1C1CC1` [Example 37-1, Ethyl ((4-cyclopropyl-6-((3′-(4-cyclopropyl-5-(((2-hydroxyethyl)amino)methyl)picolinamido)-2,2′-dimethyl-[1,1′-biphenyl]-3-yl)carbamoyl)pyridin-3-yl)methyl)-L-serinate] the EC50 [1] was 265 nM and the IC50 [2] was 5.58 nM.
Molecule `Cc1c(NC(=O)c2cc(C3CC3)c(CN[C@H](C)CO)cn2)cccc1-c1cccc(NC(=O)c2cc(C3CC3)c(CN[C@H](CO)C(=O)O)cn2)c1C` [Example 38, ((4-cyclopropyl-6-((3′-(4-cyclopropyl-5-((((R)-1-hydroxypropan-2-yl)amino)methyl)picolinamido)-2,2-dimethyl-[1,1′-biphenyl]-3-yl)carbamoyl)pyridin-3-yl)methyl)-D-serine] has an EC50 [1] of 37.3 nM and an IC50 [2] of 0.67 nM.
For `Cc1c(NC(=O)c2cc(C3CC3)c(CN[C@@H](CO)C(=O)O)cn2)cccc1-c1cccc(NC(=O)c2cc(C3CC3)c(CN3CCCC[C@H]3C(=O)O)cn2)c1C` [Example 32, (S)-1-((6-((3′-(5-((((S)-1-carboxy-2-hydroxyethyl)amino)methyl)-4-cyclopropylpicolinamido)-2,2′-dimethyl-[1,1′-biphenyl]-3-yl)carbamoyl)-4-cyclopropylpyridin-3-yl)methyl) piperidine-2-carboxylic acid], the EC50 [1] was 44.8 nM and the IC50 [2] was 1.85 nM.
`Cc1c(NC(=O)c2cc(C3CC3)c(CNC3COC3)cn2)cccc1-c1cccc(NC(=O)c2cc(C3CC3)c(CN3CCCC[C@H]3C(=O)O)cn2)c1C` [Example 23, (S)-1-((4-cyclopropyl-6-((3′-(4-cyclopropyl-5-((oxetan-3-ylamino)methyl)picolinamido)-2,2′-dimethyl-[1,1′-biphenyl]-3-yl)carbamoyl)pyridin-3-yl)methyl)piperidine-2-carboxylic acid] gave an EC50 [1] of 77.5 nM and an IC50 [2] of 2.57 nM.
`CCOC(=O)[C@@H](CO)NCc1cnc(C(=O)Nc2cccc(-c3cccc(NC(=O)c4cc(C5CC5)c(CN5CC[C@@H](O)C5)cn4)c3C)c2C)cc1C1CC1` [Example 53-1, Ethyl ((4-cyclopropyl-6-((3′-(4-cyclopropyl-5-(((R)-3-hydroxypyrrolidin-1-yl)methyl)picolinamido)-2,2′-dimethyl-[1,1′-biphenyl]-3-yl)carbamoyl)pyridin-3-yl)methyl)-D-serinate] was tested, and the EC50 [1] was 258 nM and the IC50 [2] was 5.77 nM.
`Cc1c(NC(=O)c2cc(C3CC3)c(CN[C@H](C)CO)cn2)cccc1-c1cccc(NC(=O)c2cc(C3CC3)c(CN3CCCC[C@H]3C(=O)O)cn2)c1C` [Example 2, (S)-1-((4-cyclopropyl-6-((3′-(4-cyclopropyl-5-((((R)-1-hydroxypropan-2-yl)amino)methyl)picolinamido)-2,2′-dimethyl-[1,1′-biphenyl]-3-yl)carbamoyl)pyridin-3-yl)methyl)piperidine-2-carboxylic acid] gave an EC50 [1] of 9.2 nM and an IC50 [2] of 1.21 nM.
With `CNCc1cnc(C(=O)Nc2cccc(-c3cccc(NC(=O)c4cc(C5CC5)c(CN5CCCC[C@H]5C(=O)O)cn4)c3C)c2C)cc1C1CC1` [Example 7, (S)-1-((4-cyclopropyl-6-((3′-(4-cyclopropyl-5-((methylamino)methyl)picolinamido)-2,2′-dimethyl-[1,1′-biphenyl]-3-yl)carbamoyl)pyridin-3-yl)methyl) piperidine-2-carboxylic acid] the EC50 [1] was 24.1 nM and the IC50 [2] was 0.49 nM.

From US20220380342A1, “BIPHENYL DERIVATIVES FOR BLOCKING PD-1/PD-L1 INTERACTION, PREPARATION METHOD THEREFOR AND USE THEREOF” (Abbisko Therapeutics Co., Ltd., priority 2019, published 2022)
